Data on 14 compounds can be found in PMC7728372, “Synthesis and Biological Evaluation of Amino Chalcone Derivatives as Antiproliferative Agents” (Molecules, 2020).

The subject of the first series is MGC-803 cells. The experiment in a line: MTT antiproliferative assay, MGC-803 cells. The format is cell-based, human. Conditions: Homo sapiens, MGC-803, 48 h, exposure for 48 h. The procedure:
(§1) Cell lines used were cultured in humidified incubator at 37 °C and 5% CO2. The RPMI-1640 medium was supplemented with 10% fetal bovine serum, penicillin (100 U/mL) and streptomycin (0.1 mg/mL).
(§2) Cell lines were seeded into […] and incubated for 24 h. Then cells were treated with different concentrations of compounds. And after another 48 h, MTT reagent (20 μL per well) was added and then incubated at 37 °C for 4 h. Formazan was then dissolved with DMSO. Absorbencies of formazan solution were measured at […]. The IC50 values of tested compounds were calculated by SPSS version 17.0.
Usually IC50 stands for the concentration that gives 50% inhibition. As for `COc1cc(/C=C/C(=O)c2ccc(NC(=O)CCCCCl)cc2)cc(OC)c1OC` [Compound 13f], 3.01 ± 0.11 µM corresponded to half-maximal inhibition (IC50).

For the compound `COc1ccc(/C=C/C(=O)c2ccc(NC(=O)CCCCl)cc2)cc1OC` [Compound 13l], the IC50 was 16.3 ± 0.65 µM.

On to `O=C(CCCCl)Nc1ccc(C(=O)/C=C/c2ccccc2)cc1` [Compound 13h], for which the IC50 amounted to 22.1 ± 0.75 µM.

For the compound `COc1cc(/C=C/C(=O)c2ccc(NC(=O)CCl)cc2)cc(OC)c1OC` [Compound 13c], half-maximal inhibition (IC50) was put at 1.88 ± 0.22 µM.

Turning to `C=CC(=O)Nc1ccc(/C=C/C(=O)c2cc(OC)c(OC)c(OC)c2)cc1` [Compound 13g, (E)-N-(4-(3-oxo-3-(3,4,5-trimethoxyphenyl)prop-1-en-1-yl)phenyl) acrylamide], half-maximal inhibition (IC50) required 1.83 ± 0.2 µM.

Compound `COc1cc(/C=C/C(=O)c2ccc(NC(=O)CCCl)cc2)cc(OC)c1OC` [Compound 13d] yielded an IC50 of 1.64 ± 0.18 µM.

`O=C(CCCCl)Nc1ccc(C(=O)/C=C/c2ccc(F)cc2)cc1` [Compound 13j] registered an IC50 of over 40 µM.

The same series, now with this note: exposure for 48 h.
The compound “(E)-N-(4-(3-oxo-3-(3,4,5-trimethoxyphenyl) prop-1-en-1-yl)phenyl) pentanamide [Compound 13b]” returned a half-maximal inhibitory concentration (IC50) of 4.08 ± 0.24 µM.

Compound “(E)-N-(4-(3-(4-bromophenyl)-3-oxoprop-1-en-1-yl) phenyl)-4-chlorobutanamide [Compound 13k]” showed an IC50 of over 40 µM.

Compound “(E)-N-(4-(3-oxo-3-(3,4,5-trimethoxyphenyl) prop-1-en-1-yl) phenyl) acetamide [Compound 13a]” yielded an IC50 of 3.81 ± 0.22 µM.

In the case of `C=CC(=O)Nc1ccc(/C=C/C(=O)c2cc(OC)c(OC)c(OC)c2)cc1` [Compound 13g, (E)-N-(4-(3-oxo-3-(3,4,5-trimethoxyphenyl)prop-1-en-1-yl)phenyl) acrylamide], half-maximal inhibition (IC50) was put at 1.52 µM.

The compound “(E)-4-chloro-N-(4-(3-oxo-3-(p-tolyl)prop-1-en-1-yl)phenyl)butanamide [Compound 13i]” registered an IC50 of 16.8 ± 0.82 µM.

The subject of another series is HCT-116 cells. The experiment in a line: MTT antiproliferative assay, HCT-116 cells. Format: cell-based, human. The settings on record: Homo sapiens, HCT-116, exposure for 48 h. The procedure: as §1, §2
A general note: Tetrazolium assays rely on reduction of a dye to a coloured formazan, in cell work by metabolically active cells.
`COc1cc(/C=C/C(=O)c2ccc(NC(=O)CCCCCl)cc2)cc(OC)c1OC` [Compound 13f] displayed an IC50 of 4.28 ± 0.32 µM.

As to `COc1ccc(/C=C/C(=O)c2ccc(NC(=O)CCCCl)cc2)cc1OC` [Compound 13l], the half-inhibitory concentration (IC50) was over 40 µM.

As to `O=C(CCCCl)Nc1ccc(C(=O)/C=C/c2ccccc2)cc1` [Compound 13h], the midpoint of inhibition, the IC50, lay at 13.1 ± 0.51 µM.

In the case of `COc1cc(/C=C/C(=O)c2ccc(NC(=O)CCl)cc2)cc(OC)c1OC` [Compound 13c], the IC50 worked out at 2.83 ± 0.03 µM.

In turn, `C=CC(=O)Nc1ccc(/C=C/C(=O)c2cc(OC)c(OC)c(OC)c2)cc1` [Compound 13g, (E)-N-(4-(3-oxo-3-(3,4,5-trimethoxyphenyl)prop-1-en-1-yl)phenyl) acrylamide] yielded an IC50 of 1.12 ± 0.11 µM.

In turn, `COc1cc(/C=C/C(=O)c2ccc(NC(=O)CCCl)cc2)cc(OC)c1OC` [Compound 13d] came in with an IC50 of 2.4 ± 0.26 µM.

With `O=C(CCCCl)Nc1ccc(C(=O)/C=C/c2ccc(F)cc2)cc1` [Compound 13j], the IC50 is over 40 µM.

The same series, now with this note: exposure for 48 h.
“(E)-N-(4-(3-oxo-3-(3,4,5-trimethoxyphenyl) prop-1-en-1-yl)phenyl) pentanamide [Compound 13b]” came in with a half-inhibitory concentration (IC50) of 6.72 ± 0.28 µM.

In the case of “(E)-N-(4-(3-(4-bromophenyl)-3-oxoprop-1-en-1-yl) phenyl)-4-chlorobutanamide [Compound 13k]”, the IC50 was over 40 µM.

For the compound “(E)-4-chloro-N-(4-(3-oxo-3-(p-tolyl)prop-1-en-1-yl)phenyl)butanamide [Compound 13i]”, 13.1 ± 0.61 µM corresponded to half-maximal inhibition (IC50).

The compound `O=c1[nH]cc(F)c(=O)[nH]1` [Compound 5-Fu, reference compound] had a half-inhibitory concentration (IC50) of 14.4 ± 1.73 µM.

For a further series, the system named is MCF-7 cells. The series is described as follows: MTT antiproliferative assay, MCF-7 cells. The settings on record: Homo sapiens, MCF7, exposure for 48 h. Format: cell-based, human. The procedure:
as §1, §2
Compound `COc1cc(/C=C/C(=O)c2ccc(NC(=O)CCCCCl)cc2)cc(OC)c1OC` [Compound 13f] registered an IC50 of 4.45 ± 0.11 µM.

`COc1ccc(/C=C/C(=O)c2ccc(NC(=O)CCCCl)cc2)cc1OC` [Compound 13l] yielded an IC50 of 10.1 ± 0.73 µM.

For the compound `O=C(CCCCl)Nc1ccc(C(=O)/C=C/c2ccccc2)cc1` [Compound 13h], the IC50 came out at 22.2 ± 0.83 µM.

As for `COc1cc(/C=C/C(=O)c2ccc(NC(=O)CCl)cc2)cc(OC)c1OC` [Compound 13c], half-maximal inhibition (IC50) was put at 3.12 ± 0.01 µM.

For the compound `C=CC(=O)Nc1ccc(/C=C/C(=O)c2cc(OC)c(OC)c(OC)c2)cc1` [Compound 13g, (E)-N-(4-(3-oxo-3-(3,4,5-trimethoxyphenyl)prop-1-en-1-yl)phenyl) acrylamide], the IC50 worked out at 2.06 ± 0.21 µM.

In turn, `COc1cc(/C=C/C(=O)c2ccc(NC(=O)CCCl)cc2)cc(OC)c1OC` [Compound 13d] registered an IC50 of 2.12 ± 0.13 µM.

On to `O=C(CCCCl)Nc1ccc(C(=O)/C=C/c2ccc(F)cc2)cc1` [Compound 13j], for which the IC50 was over 40 µM.

The series is the same for the next values; noted with them: exposure for 48 h.
For “(E)-N-(4-(3-oxo-3-(3,4,5-trimethoxyphenyl) prop-1-en-1-yl)phenyl) pentanamide [Compound 13b]”, the IC50 turned out to be 3.11 ± 0.34 µM.

Compound “(E)-N-(4-(3-(4-bromophenyl)-3-oxoprop-1-en-1-yl) phenyl)-4-chlorobutanamide [Compound 13k]” showed an IC50 of over 40 µM.

Consider “(E)-N-(4-(3-oxo-3-(3,4,5-trimethoxyphenyl) prop-1-en-1-yl) phenyl) acetamide [Compound 13a]”, for which it took 3.56 ± 0.17 µM to reach half-maximal inhibition (IC50).

In the case of “(E)-4-chloro-N-(4-(3-oxo-3-(p-tolyl)prop-1-en-1-yl)phenyl)butanamide [Compound 13i]”, it took 17.6 ± 0.51 µM to reach half-maximal inhibition (IC50).

`O=c1[nH]cc(F)c(=O)[nH]1` [Compound 5-Fu, reference compound] yielded an IC50 of 12.1 ± 1.28 µM.

In the next series the test system is GES-1 cells. The series is described as follows: MTT antiproliferative assay, non-cancer GES-1 cells. Format: cell-based. The settings on record: A = IC50 (GES-1)/IC50 (MGC-803). The procedure:
as §1, §2
For `C=CC(=O)Nc1ccc(/C=C/C(=O)c2cc(OC)c(OC)c(OC)c2)cc1` [Compound 13g, (E)-N-(4-(3-oxo-3-(3,4,5-trimethoxyphenyl)prop-1-en-1-yl)phenyl) acrylamide], the “Fold Selectivity A” value came out at 5.4 fold.

The series is the same for the next values; noted with them: Homo sapiens, GES1; non-cancer cell line, exposure for 48 h.
As for `C=CC(=O)Nc1ccc(/C=C/C(=O)c2cc(OC)c(OC)c(OC)c2)cc1` [Compound 13g, (E)-N-(4-(3-oxo-3-(3,4,5-trimethoxyphenyl)prop-1-en-1-yl)phenyl) acrylamide], the IC50 amounted to 8.22 µM.

Staying with this series, now noted: non-cancer cell line, exposure for 48 h.
`O=c1[nH]cc(F)c(=O)[nH]1` [Compound 5-Fu, reference compound] gave an IC50 of 8.22 µM.

Tested on in another series: not given
Experiment: not given
Settings: not given
For orientation: melting point means the temperature, or range, at which the solid turns liquid. `COc1cc(/C=C/C(=O)c2ccc(NC(=O)CCCCCl)cc2)cc(OC)c1OC` [Compound 13f] came in with a melting point of 125 to 126 °C.

Compound `COc1ccc(/C=C/C(=O)c2ccc(NC(=O)CCCCl)cc2)cc1OC` [Compound 13l] returned a melting point of 166 to 167 °C.

As for `O=C(CCCCl)Nc1ccc(C(=O)/C=C/c2ccccc2)cc1` [Compound 13h], the melting point was 161 to 162 °C.

`COc1cc(/C=C/C(=O)c2ccc(NC(=O)CCl)cc2)cc(OC)c1OC` [Compound 13c]: the melting point lay within 182 to 183 °C.

As to `C=CC(=O)Nc1ccc(/C=C/C(=O)c2cc(OC)c(OC)c(OC)c2)cc1` [Compound 13g, (E)-N-(4-(3-oxo-3-(3,4,5-trimethoxyphenyl)prop-1-en-1-yl)phenyl) acrylamide], the melting point is 178 to 179 °C.

`COc1cc(/C=C/C(=O)c2ccc(NC(=O)CCCl)cc2)cc(OC)c1OC` [Compound 13d] came in with a melting point of 183 to 184 °C.

For `O=C(CCCCl)Nc1ccc(C(=O)/C=C/c2ccc(F)cc2)cc1` [Compound 13j], the melting point lay within 167 to 168 °C.

The subject of a further series is MGC-803 cells.
Experiment: not given
Further details: method as in PMID 27423479, PMID 30763884, PMID 27213317. The settings on record: earlier work of the group; cited from earlier work.
As for `COc1cc(/C=C/C(=O)c2ccc(OCCCn3cc(CSc4nccs4)nn3)cc2)cc(OC)c1OC` [Compound 7], the concentration for half-maximal inhibition (IC50) was 4.26 µM.

Turning to `COc1cc(/C=C/C(=O)c2ccc(NC(=O)CSC(=S)N3CCN(CCO)CC3)cc2)cc(OC)c1OC` [Compound 6], the IC50 is 1.74 µM.
